Test results: ChEMBL document CHEMBL4831555, “Identification and Validation of New Interleukin-2 Ligands Using DNA-Encoded Libraries” (J Med Chem, 2021)
Activity calls are given as the source filed them. No cut-off for these calls is given here.

Columns and labels:
Albumin = Albumin (Homo sapiens, UniProt P02768); test: Binding affinity to human serum albumin by fluorescence polarization assay
Interleukin-2 [1] = target: T1, Interleukin-2 (Homo sapiens, UniProt P60568); test: Binding affinity to L19-IL2 (unknown origin) by fluorescence polarization assay
T1 sequence (P60568 whole entry): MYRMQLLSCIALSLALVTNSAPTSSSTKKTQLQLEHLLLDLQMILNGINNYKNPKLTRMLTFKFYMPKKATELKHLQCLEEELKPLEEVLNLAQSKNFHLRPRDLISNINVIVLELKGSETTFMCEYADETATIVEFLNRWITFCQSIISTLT

[2] = Binding affinity to AGP (unknown origin) by fluorescence polarization assay; design: species or system Homo sapiens
Tumor necrosis factor = Tumor necrosis factor (Homo sapiens, UniProt P01375); test: Binding affinity to TNF (unknown origin)
Sequence of Tumor necrosis factor (P01375 whole entry): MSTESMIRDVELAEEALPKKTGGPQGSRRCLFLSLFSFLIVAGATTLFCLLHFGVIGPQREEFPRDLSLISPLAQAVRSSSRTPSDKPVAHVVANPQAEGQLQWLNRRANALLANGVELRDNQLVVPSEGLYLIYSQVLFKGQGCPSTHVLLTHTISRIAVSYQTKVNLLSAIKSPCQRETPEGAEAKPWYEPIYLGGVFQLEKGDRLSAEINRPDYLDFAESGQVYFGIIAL

Interleukin-2 [3] = target: T1, Interleukin-2; test: Binding affinity to IL2 (unknown origin) preincubated for 15 mins followed by NARA1 addition and measured after 1 hr in presence of NARA1 by ELISA
[4] = target: Interleukin-15 (Homo sapiens) (UniProt P40933); test: Binding affinity to IL-15 (unknown origin)
Sequence of Interleukin-15 (Homo sapiens) (P40933 whole entry): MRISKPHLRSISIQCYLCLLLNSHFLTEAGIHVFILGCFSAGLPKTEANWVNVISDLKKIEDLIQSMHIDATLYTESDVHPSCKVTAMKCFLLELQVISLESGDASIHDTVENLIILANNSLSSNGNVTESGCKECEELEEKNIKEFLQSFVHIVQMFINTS

[5] = Inhibition of IL2/IL-2Ralpha (unknown origin) interaction; design: species or system Homo sapiens
Interleukin-2 [6] = target: T1, Interleukin-2; test: Binding affinity to IL2 (unknown origin) by SPR assay

Sequence of Albumin (P02768 whole entry): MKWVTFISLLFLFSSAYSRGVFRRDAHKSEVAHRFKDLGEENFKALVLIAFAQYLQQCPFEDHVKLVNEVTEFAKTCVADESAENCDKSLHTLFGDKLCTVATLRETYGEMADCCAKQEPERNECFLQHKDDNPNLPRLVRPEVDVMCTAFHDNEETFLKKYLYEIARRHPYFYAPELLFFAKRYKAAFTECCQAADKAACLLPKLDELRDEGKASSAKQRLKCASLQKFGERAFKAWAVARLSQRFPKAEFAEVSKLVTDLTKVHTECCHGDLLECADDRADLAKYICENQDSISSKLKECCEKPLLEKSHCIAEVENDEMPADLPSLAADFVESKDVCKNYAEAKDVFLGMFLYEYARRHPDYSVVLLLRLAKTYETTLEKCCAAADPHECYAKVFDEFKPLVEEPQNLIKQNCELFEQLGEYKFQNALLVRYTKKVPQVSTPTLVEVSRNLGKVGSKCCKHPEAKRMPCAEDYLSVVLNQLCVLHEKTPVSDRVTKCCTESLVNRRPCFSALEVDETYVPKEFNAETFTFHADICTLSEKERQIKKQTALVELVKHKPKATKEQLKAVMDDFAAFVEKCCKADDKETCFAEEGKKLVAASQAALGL

Compound	Kd (Albumin) [nM]	Kd (Interleukin-2 [1]) [nM]	other results
O=C(N[C@@H](Cc1ccc(I)cc1)C(=O)O)c1cc2c(F)cccc2[nH]1	70	640	–
N=C(N)NCCC[C@@H](NC(=O)[C@H](Cc1ccc(O)c(I)c1)NC(=O)c1cc2c(F)cccc2[nH]1)C(=O)O	9600	870	Kd [2]: 3000 nM
O=C(N[C@@H](Cc1ccc(O)c([N+](=O)[O-])c1)C(=O)O)c1cc2c(F)cccc2[nH]1	310	720	–
O=C(N[C@@H](Cc1ccc(O)c(I)c1)C(=O)O)c1cc2c(F)cccc2[nH]1	290	250	Kd (Tumor necrosis factor): 5100 nM
O=C(N[C@@H](Cc1ccc(O)c(Br)c1)C(=O)O)c1cc2c(F)cccc2[nH]1	780	300	–
N=C(N)NCCC[C@@H](NC(=O)[C@@H](Cc1ccc(O)c(I)c1)NC(=O)c1cc2c(F)cccc2[nH]1)C(=O)O	7200	710	Kd [2]: 4000 nM
N=C(N)NCCC[C@H](NC(=O)[C@H](Cc1ccc(O)c(I)c1)NC(=O)c1cc2c(F)cccc2[nH]1)C(=O)O	2000	340	Kd (Tumor necrosis factor): 4400 nM; Kd [2]: 3400 nM; IC50 (Interleukin-2 [3]): 3400 nM; Activity [4]: inactive
O=C(N[C@@H](Cc1ccc(O)c(Cl)c1)C(=O)O)c1cc2c(F)cccc2[nH]1	580	590	–
O=C(N[C@@H](Cc1ccc(O)cc1)C(=O)O)c1cc2c(F)cccc2[nH]1	1500	1400	–
N=C(N)NCCC[C@H](NC(=O)[C@@H](Cc1ccc(O)c(I)c1)NC(=O)c1cc2c(F)cccc2[nH]1)C(=O)O	3300	1200	Kd [2]: > 10000 nM
O=C(N[C@@H](Cc1cccc(I)c1)C(=O)O)c1cc2c(F)cccc2[nH]1	20	250	–
O=C(N[C@@H](Cc1ccc(O)c(F)c1)C(=O)O)c1cc2c(F)cccc2[nH]1	1700	920	–
O=C(N[C@H](Cc1ccc(O)c(I)c1)C(=O)O)c1cc2c(F)cccc2[nH]1	220	210	–
CC(C)C[C@@H](NC(=N)N)C(=O)NCC(=O)N1CCC(c2cc(-c3ccc(OCc4ccc(C(=O)O)o4)c(Cl)c3Cl)nn2C)CC1	–	–	IC50 [5]: 60 nM
O=C(N[C@@H](Cc1ccc(O)c(I)c1)C(=O)O)c1cc2c(F)cccc2o1	1000	2200	–
O=C(N[C@@H](Cc1ccc(O)c(I)c1)C(=O)O)c1c[nH]c2cccc(F)c12	820	510	–
O=C(N[C@@H](Cc1ccc(O)c(I)c1)C(=O)O)c1cc2cccc(F)c2[nH]1	210	390	–
O=C(N[C@@H](Cc1ccc(O)c(I)c1)C(=O)O)c1cc2ccccc2[nH]1	390	420	–
O=C(N[C@@H](Cc1ccc(O)c(I)c1)C(=O)O)c1cc2ccc(F)cc2[nH]1	170	280	–
O=C(N[C@@H](Cc1ccc(O)c(I)c1)C(=O)O)c1cc2cc(F)ccc2[nH]1	270	330	–
O=C(N[C@@H](Cc1ccc2ccccc2c1)C(=O)O)c1cc2c(F)cccc2[nH]1	30	750	–
COc1ccc(C[C@H](NC(=O)c2cc3c(F)cccc3[nH]2)C(=O)O)cc1	430	1300	–
COC(=O)[C@H](Cc1ccc(C#Cc2ccccc2)cc1)NC(=O)C[C@@H]1CCCN(C(=N)N)C1	4000	1500	Kd [2]: 4900 nM; IC50 [5]: 3000 nM; Kd (Interleukin-2 [6]): 22000 nM
